TGI data for eleven compounds are collected here from PubChem BioAssay (NCI).

SMILES strings stand for the structures.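 Each compound was tested at five concentrations against cells in 96-well plates for 48 hours. TGI: concentration producing complete growth inhibition.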

Test systems include HOP-62 NSCLC; UACC-62 melanoma; RXF 393 renal; SNB-75 CNS; M14 melanoma; SNB-19 CNS; OVCAR-3 ovarian; SF-295 CNS; HCT-116 colon; COLO 205 colon; U251 CNS; MALME-3M melanoma; UACC-257 melanoma; SF-268 CNS; ACHN renal; SK-MEL-28 melanoma; CAKI-1 renal; EKVX NSCLC; OVCAR-5 ovarian.
Holding throughout (experiment): NCI anticancer screen, dose series, 48 h

As for `O=C(N1CCOCC1)C1(c2ccccc2)CCNCC1`, the TGI in the experiment with HOP-62 NSCLC, in the experiment with UACC-62 melanoma, with RXF 393 renal, in the experiment with SNB-75 CNS, with M14 melanoma and in the experiment with SNB-19 CNS was over 100 µM in each case. Moreover, the TGI with OVCAR-3 ovarian, in the experiment on SF-295 CNS, with HCT-116 colon, in the experiment on COLO 205 colon, in the experiment with U251 CNS and in the experiment on MALME-3M melanoma was over 100 µM in each case. For the same compound, the TGI in the experiment with UACC-257 melanoma, with SF-268 CNS, in the experiment on ACHN renal, with SK-MEL-28 melanoma, in the experiment with CAKI-1 renal and with EKVX NSCLC was over 100 µM in each case. In addition, the TGI with OVCAR-5 ovarian was over 100 µM.
Consider `C[C@@H]1CCC2[C@@H](C)[C@H](O[C@H]3O[C@@H]4O[C@@]5(C)CCC6[C@H](C)CCC([C@H]3C)[C@]64OO5)O[C@@H]3O[C@@]4(C)CCC1[C@@]23OO4` (stereo not given in full), for which the TGI in the experiment on HOP-62 NSCLC came to 25.5 µM; with UACC-62 melanoma, 15.9 µM; with RXF 393 renal it was 21.4 µM; in the experiment with SNB-75 CNS, 14.5 µM; in the experiment with M14 melanoma, 20.6 µM; with SNB-19 CNS, 25.2 µM. Further, the TGI is 18.3 µM with OVCAR-3 ovarian; 18.8 µM in the experiment on SF-295 CNS; 12.7 µM with HCT-116 colon; 0.326 µM with COLO 205 colon; 23.8 µM in the experiment on U251 CNS; 19.1 µM in the experiment on MALME-3M melanoma. For the same compound, the TGI in the experiment with UACC-257 melanoma came out at 18.6 µM; with SF-268 CNS, 23.8 µM; with ACHN renal it was 14.2 µM; in the experiment on SK-MEL-28 melanoma, 27.3 µM; with CAKI-1 renal, 13.9 µM; in the experiment with EKVX NSCLC, 18.7 µM. The TGI in the experiment with OVCAR-5 ovarian came to 10.3 µM.
Turning to `CC/C(Cl)=N\OC(=O)Nc1ccccc1OC(F)(F)F`, the TGI in the experiment on HOP-62 NSCLC was 37.3 µM; in the experiment on UACC-62 melanoma, 37.1 µM; with RXF 393 renal, 32.6 µM; in the experiment with SNB-75 CNS, 48.2 µM; in the experiment with M14 melanoma, 23.3 µM; in the experiment on SNB-19 CNS, 53.9 µM. Besides, the TGI is 22.2 µM with OVCAR-3 ovarian; 33.5 µM in the experiment with SF-295 CNS; 27 µM in the experiment with HCT-116 colon; 3.79 µM in the experiment on COLO 205 colon; over 57.8 µM in the experiment with U251 CNS; 17.6 µM in the experiment with MALME-3M melanoma. Further, the TGI with UACC-257 melanoma is 32.8 µM; in the experiment with SF-268 CNS it was over 57.8 µM; with ACHN renal, 3.69 µM; in the experiment with SK-MEL-28 melanoma, 41.5 µM; with CAKI-1 renal, 3.33 µM; in the experiment with EKVX NSCLC, 15.9 µM. For the same compound, in the experiment on OVCAR-5 ovarian, the TGI was 36.9 µM.
With `Oc1ccc(-c2c3ccccc3c(-c3ccc(OCCBr)cc3)c3ccccc23)cc1`, the TGI with HOP-62 NSCLC is 50.6 µM; with UACC-62 melanoma, 42.1 µM; with RXF 393 renal, 64.3 µM; with SNB-75 CNS, 60.9 µM; in the experiment on M14 melanoma, 37 µM; in the experiment on SNB-19 CNS, 84.3 µM. Besides, the TGI is 33.7 µM in the experiment with OVCAR-3 ovarian; 32.7 µM in the experiment on SF-295 CNS; over 100 µM in the experiment on HCT-116 colon; 96.9 µM in the experiment on COLO 205 colon; 53.3 µM with U251 CNS; 33.8 µM in the experiment with MALME-3M melanoma. Besides, the TGI in the experiment on UACC-257 melanoma was 54.5 µM; with SF-268 CNS, over 100 µM; in the experiment on ACHN renal, 90.7 µM; in the experiment on SK-MEL-28 melanoma, 51 µM; in the experiment on CAKI-1 renal it was 67.1 µM; in the experiment with EKVX NSCLC it was over 100 µM. In the experiment with OVCAR-5 ovarian, the TGI was over 100 µM.
As for `Brc1ccccc1/C=C\C1(c2ccccc2)OCCO1`, the TGI in the experiment with HOP-62 NSCLC worked out at 27.7 µM; with UACC-62 melanoma it was 28 µM; in the experiment with RXF 393 renal, 27.7 µM; with SNB-75 CNS, 28.6 µM; in the experiment on M14 melanoma, 25.6 µM; with SNB-19 CNS, 28.9 µM. Also, the TGI with OVCAR-3 ovarian came out at 25.5 µM; in the experiment on SF-295 CNS, 26.4 µM; in the experiment with HCT-116 colon it was 11.9 µM; in the experiment on COLO 205 colon it was 37.7 µM; in the experiment with U251 CNS, 18.4 µM; with MALME-3M melanoma it was 29.9 µM. The TGI with UACC-257 melanoma was 34.5 µM; in the experiment with SF-268 CNS, 16 µM; with ACHN renal it was 21.3 µM; in the experiment with SK-MEL-28 melanoma, 46.9 µM; in the experiment on CAKI-1 renal, 16.3 µM; in the experiment with EKVX NSCLC, 30.6 µM. Also, the TGI in the experiment with OVCAR-5 ovarian was found to be 29.5 µM.
Consider `COc1c(C(=O)/C(=N/Nc2ccccc2)C(C)=O)c(O)c(OC)c2occc12`, for which the TGI in the experiment on HOP-62 NSCLC was over 100 µM; with UACC-62 melanoma it was over 100 µM; in the experiment with RXF 393 renal, over 100 µM; in the experiment on SNB-75 CNS it was 81.8 µM; with M14 melanoma, over 100 µM; with SNB-19 CNS, over 100 µM. Further, the TGI in the experiment on OVCAR-3 ovarian is over 100 µM; with SF-295 CNS, over 100 µM; with HCT-116 colon, over 100 µM; in the experiment with COLO 205 colon it was over 100 µM; in the experiment on U251 CNS it was over 100 µM; in the experiment with MALME-3M melanoma, 92 µM. The TGI in the experiment on UACC-257 melanoma, with SF-268 CNS, with ACHN renal, with SK-MEL-28 melanoma, in the experiment with CAKI-1 renal and in the experiment on EKVX NSCLC was over 100 µM each time. In addition, in the experiment on OVCAR-5 ovarian, the TGI is over 100 µM.
Take `CC1=NN(C(=O)CC(=O)Nc2ccccc2C)C(=O)C1N=Nc1ccc(S(=O)(=O)c2ccc(N=NC3C(=O)N(C(=O)CC(=O)Nc4ccccc4C)N=C3C)cc2)cc1` (stereo not given): the TGI with HOP-62 NSCLC, in the experiment with UACC-62 melanoma, in the experiment with RXF 393 renal, in the experiment with SNB-75 CNS, with M14 melanoma and in the experiment on SNB-19 CNS was over 100 µM each time. The TGI with OVCAR-3 ovarian, in the experiment with SF-295 CNS, in the experiment on HCT-116 colon, in the experiment on COLO 205 colon, with U251 CNS and in the experiment on MALME-3M melanoma was over 100 µM throughout. In addition, the TGI in the experiment with UACC-257 melanoma, with SF-268 CNS, with ACHN renal, in the experiment on SK-MEL-28 melanoma, in the experiment with CAKI-1 renal and in the experiment with EKVX NSCLC was over 100 µM each time. In the experiment on OVCAR-5 ovarian, this compound yielded a TGI of over 100 µM.
On to `CC(C)=CCC/C(C)=C/CC/C(C)=C/CC/C=C(\C)CC/C=C(\C)CCC1SC1(C)C` (stereo not given), for which the TGI in the experiment with HOP-62 NSCLC, in the experiment with UACC-62 melanoma, in the experiment with RXF 393 renal, in the experiment on SNB-75 CNS, with M14 melanoma and with SNB-19 CNS was over 100 µM in each case. Besides, the TGI with SF-295 CNS, in the experiment with HCT-116 colon, with COLO 205 colon, in the experiment with U251 CNS, with MALME-3M melanoma and in the experiment on UACC-257 melanoma was over 100 µM in each case. Besides, the TGI in the experiment with SF-268 CNS, with ACHN renal, with SK-MEL-28 melanoma, with CAKI-1 renal, in the experiment with EKVX NSCLC and with OVCAR-5 ovarian was over 100 µM each time.
Take `COc1ccc(N2C(=O)CSC2c2cc3cc(Br)ccc3nc2Cl)cc1` (stereo not given): the TGI in the experiment on HOP-62 NSCLC, in the experiment with UACC-62 melanoma, in the experiment with RXF 393 renal, in the experiment with SNB-75 CNS, in the experiment on M14 melanoma and in the experiment with SNB-19 CNS was over 50 µM each time. Moreover, the TGI in the experiment with OVCAR-3 ovarian, in the experiment on SF-295 CNS, with HCT-116 colon, with COLO 205 colon, in the experiment on MALME-3M melanoma and with UACC-257 melanoma was over 50 µM in each case. Moreover, the TGI with SF-268 CNS, in the experiment with ACHN renal, in the experiment with SK-MEL-28 melanoma, in the experiment with CAKI-1 renal, with EKVX NSCLC and in the experiment with OVCAR-5 ovarian was over 50 µM throughout.
With `Cc1nc2c(O)cccc2c(=O)[nH]1`, the TGI in the experiment with HOP-62 NSCLC, in the experiment with UACC-62 melanoma, with RXF 393 renal, in the experiment on SNB-75 CNS, in the experiment on M14 melanoma and with SNB-19 CNS was over 1000 µM each time. Further, the TGI with OVCAR-3 ovarian, in the experiment on SF-295 CNS, in the experiment on HCT-116 colon, in the experiment with U251 CNS, in the experiment on MALME-3M melanoma and in the experiment on UACC-257 melanoma was over 1000 µM in each case. Moreover, the TGI in the experiment with SF-268 CNS, in the experiment on ACHN renal, in the experiment with SK-MEL-28 melanoma, with CAKI-1 renal, in the experiment with EKVX NSCLC and in the experiment on OVCAR-5 ovarian was over 1000 µM in each case.
As to `COc1ccc(-c2nc(N(C)C)c3ccccc3n2)cc1`, the TGI is 51.5 µM in the experiment on HOP-62 NSCLC; 37.6 µM in the experiment with UACC-62 melanoma; 24.7 µM with RXF 393 renal; 40.4 µM in the experiment on SNB-75 CNS; 44.2 µM with M14 melanoma; over 100 µM with SNB-19 CNS. In addition, the TGI turned out to be 46.3 µM in the experiment on SF-295 CNS; 17.4 µM with HCT-116 colon; 29.6 µM in the experiment with COLO 205 colon; 80 µM in the experiment on U251 CNS; 42.1 µM in the experiment on MALME-3M melanoma; 32.6 µM in the experiment on UACC-257 melanoma. For the same compound, the TGI with SF-268 CNS is 99.3 µM; in the experiment with ACHN renal it was 53.5 µM; with SK-MEL-28 melanoma, 33.7 µM; in the experiment on CAKI-1 renal, over 100 µM; with EKVX NSCLC it was 22.3 µM; with OVCAR-5 ovarian, 62.2 µM.
